Assay results taken from patent publication US20080260682A1, “Polyethylene glycol colonic purgative composition” (Salix Pharmaceuticals, Inc., priority 2005, published 2008).

Tested on: normal healthy subjects
Settings: in vivo
Method: In addition, the safety and tolerability of the PEG 8000 was evaluated.
This study was a double-blinded, randomized, crossover study with 16 healthy male subjects. Subjects were randomly assigned to one of two dosing sequences: Sequence A (n=9) or Sequence B (n=6). For each dosing sequence there were three scheduled visits: a screening visit (Visit 0) and two treatment visits (Visits 1 and 2). […] At the beginning of day 4, the standardized diet ended and subjects were given a low fiber breakfast followed by clear liquids for the rest of the day. On day 5, patients received nothing by mouth (NPO) after the administration of the test materials.
A baseline period measurement period began at 6 p.m. on day 2 and lasted 48 hours. During the baseline period, all bowel movements were collected, recorded, and assessed for consistency and weight. At 6 p.m. on day 4, the test article administration began. […] In both dosing sequences, Visit I was followed by a two-week washout period before subjects crossed over to begin visit 2. During the observation period of test article administration, all bowel movements were collected, recorded, and assessed for consistency and weight. The observation period of test article administration began when the test article was administered and continued until 11 a.m. on day 5.
Subjects drank another 5 doses in the same manner beginning at 6:00 a.m. on day 5.

**Q.** How did the “serious events, severe events, deaths” value turn out when polyethylene glycol 8000 [PEG 8000] was run?
**A.** Its value is “no serious events, no severe events, and no deaths”.
